Where two headings read alike, the source gives them in different places.
How the values were obtained:
[1] = pKa measurement of unformulated amine lipid (fluorescence, method of Jayaraman et al.); type: physicochemical; conditions: 100 μM in 0.1 M phosphate buffer pH 4.5-9.0
Experimental: The pKa of each amine lipid was determined according to the method in Jayaraman, et al. (Angewandte Chemie, 2012) with the following adaptations. […] Lipid was diluted to 100 μM in 0.1 M phosphate buffer (Boston Bioproducts) where the pH ranged from 4.5-9.0. Fluorescence intensity was measured using excitation and emission wavelengths of 321 nm and 448 nm.

[2] = RNA encapsulation efficiency of LNP (Ribogreen fluorescence assay); type: physicochemical
Outline: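 LNP samples diluted in 1× TE buffer with 0.2% Triton X-100 (total RNA) or without it (free RNA), stained with RiboGreen for ~10 min at room temperature in the dark, read at ex 488/em 525 nm against RNA standard curves. Encapsulation efficiency = (Total RNA − Free RNA)/Total RNA.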

TTR [3] = test: TTR editing in mouse liver by NGS after i.v. LNP delivery of Cas9 mRNA and sgRNA; type: in vivo
Outline: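 Cas9 mRNA and chemically modified sgRNA were co-formulated in LNPs made of an ionizable amine lipid, DSPC, cholesterol and PEG-2k-DMG at a 6.0 N:P ratio. CD-1 female mice aged 6-10 weeks received tail-vein injections of 0.2 mL. Liver genomic DNA was then amplified around the target site and sequenced on an Illumina MiSeq, with editing calculated as indel-containing reads over total reads.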

TTR [4] = test: Transthyretin (TTR) ELISA analysis of mouse serum after LNP dosing; type: in vivo; conditions: for response vs control in vivo at 0.1 mg/kg / response vs control in vivo at 0.03 mg/kg: Mus musculus, iv, read-out: Serum TTR % TSS
Outline: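 Female CD-1 mice aged 6-10 weeks were grouped by body weight and given LNPs by lateral tail vein injection (0.2 mL per animal, about 10 mL per kilogram). Mice were bled by cardiac puncture under isoflurane into serum separator tubes. Serum was diluted 10,000-fold for the 0.1 mpk dose, and total TTR was quantified with a Mouse Prealbumin (Transthyretin) ELISA Kit following the kit directions.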

[5] = Example 53: 0.1 mpk i.v., CD-1 female mice, 6 days post-dose, G282 1:1
[6] = Example 53: 0.3 mpk i.v., CD-1 female mice, 6 days post-dose, G282 1:1
[7] = Example 55: 0.1 mpk i.v., 7 days post-dose, G282 1:1

- pKa [1]: 6.3
- Encapsulation (%) ([2]; Table 3, Example 52: LNP, Cas9 mRNA + sgRNA (G650) 1:1 w/w, N:P 6.0, Compound 19 50/9/38/3, others 50/10/38.5/1.5): 98%
- Encapsulation (%) ([2]; Table 5, Example 53: LNP with gRNA G282 (TTR), 1:1 w/w, N:P 6.0): 97%
- Encapsulation (%) ([2]; Table 5, Example 53: LNP with gRNA G650 (B2M), 1:1 w/w, N:P 6.0): 98%
- Encapsulation (%) ([2]; Table 10, Example 55: LNP, G282 (TTR) 1:1 w/w, N:P 6.0): 97%
- Encapsulation (%) ([2]; Table 14, Example 58: LNP, G282 (TTR) 1:1 w/w, N:P 6.0): 97%
- Encapsulation (%) ([2]; Table 16, Example 59: LNP, G282 (TTR) 1:1 w/w, N:P 6.0): 96%
- Encapsulation (%) ([2]; Table 18, Example 60: LNP, G502 (TTR), sgRNA:Cas9 mRNA 1:2 w/w, N:P 6.0): 97%
- Encapsulation (%) ([2]; Table 22, Example 62: LNP, G282 (TTR), sgRNA:Cas9 mRNA 1:2 w/w, N:P 6.0): 97%
- Encapsulation (%) ([2]; Table 24, Example 63: LNP, G282 (TTR) 1:1 w/w, NP 6.0): 98%
SMILES: CCCCCCCCCOC(=O)CCCCCCCN(CCO)CCCCCCCC(OCCCCCCCC)OCCCCCCCC [Compound 1, nonyl 8-((8,8-bis(octyloxy)octyl)(2-hydroxyethyl)amino octanoate]
- TTR Editing (%) (TTR [3]; [5]): 55.4%
- TTR Editing (%) (TTR [3]; [6]): 59.3%
- TTR editing in the liver compared with Compound 19 formulations (TTR [3]; Example 53 text: 0.1 and 0.3 mpk): higher TTR editing in the liver than Compound 19 formulations at each dose
- editing of TTR (TTR [3]; Example 53 text: both the 0.1 mpk and 0.3 mpk doses): 55-60%
- % Editing (TTR, liver) (TTR [3]; Example 55: 0.1 mpk i.v., CD-1 female mice, 7 days post-dose, G282 1:1): 43%
- Editing Mean % Indel (TTR [3]; Example 58: 0.1 mpk i.v., CD-1 female mice, 6 days post-dose, G282 1:1): 29.5%
- Editing Mean % Indel (TTR [3]; Example 59: 0.1 mpk i.v., CD-1 female mice, 7 days post-dose, G282 1:1): 41.6%
- Editing Mean % Indel (TTR [3]; Example 60: 0.1 mpk i.v., CD-1 female mice, 6 days post-dose, G502 1:2): 46.3%
- Editing Mean % Indel (TTR [3]; Example 62: 0.03 mpk i.v., CD-1 female mice, 7 days post-dose, G282 1:2): 8.9%
- Editing Mean % Indel (TTR [3]; Example 62: 0.1 mpk i.v., CD-1 female mice, 7 days post-dose, G282 1:2): 34.2%
- Editing Mean % Indel (TTR [3]; Example 63: 0.03 mpk i.v., CD-1 female mice, 7 days post-dose, G282 1:1): 10.86%
- Editing Mean % Indel (TTR [3]; Example 63: 0.1 mpk i.v., CD-1 female mice, 7 days post-dose, G282 1:1): 41.10%
- TSS (serum TTR % TSS) (TTR [4]; Example 53: 0.1 mpk i.v., 6 days post-dose, G282 1:1): 5 % TSS
- Serum TTR (TTR [4]; [5]): 19 µg/mL
- TSS (serum TTR % TSS) (TTR [4]; Example 53: 0.3 mpk i.v., 6 days post-dose, G282 1:1): 5 % TSS
- Serum TTR (TTR [4]; [6]): 5 µg/mL
- Serum TTR (TTR [4]; [7]): 391 µg/mL
- Serum TTR (% TSS) (TTR [4]; [7]): 34 % TSS
- Serum TTR (TTR [4]; Example 58: 0.1 mpk i.v., 6 days post-dose, G282 1:1): 656 µg/mL
- Serum TTR (TTR [4]; Example 59: 0.1 mpk i.v., 7 days post-dose, G282 1:1): 327 µg/mL
- Serum TTR (TTR [4]; Example 60: 0.1 mpk i.v., 6 days post-dose, G502 1:2): 353 µg/mL
- Serum TTR (TTR [4]; Example 62: 0.03 mpk i.v., 7 days post-dose, G282 1:2): 594 µg/mL
- Serum TTR (TTR [4]; Example 62: 0.1 mpk i.v., 7 days post-dose, G282 1:2): 241 µg/mL
- Serum TTR (TTR [4]; Example 63: 0.03 mpk i.v., 7 days post-dose, G282 1:1): 741.05 µg/mL
- Serum TTR (TTR [4]; Example 63: 0.1 mpk i.v., 7 days post-dose, G282 1:1): 351.76 µg/mL
- response vs control in vivo at 0.1 mg/kg (TTR [4]; 144 h, Example 58: 0.1 mpk i.v., 6 days post-dose, G282 1:1): 66%
- response vs control in vivo at 0.1 mg/kg (TTR [4]; 144 h, Example 60: 0.1 mpk i.v., 6 days post-dose, G502 1:2): 25%
- response vs control in vivo at 0.1 mg/kg (TTR [4]; 168 h, Example 59: 0.1 mpk i.v., 7 days post-dose, G282 1:1): 35%
- response vs control in vivo at 0.03 mg/kg (TTR [4]; 168 h, Example 62: 0.03 mpk i.v., 7 days post-dose, G282 1:2): 93%
- response vs control in vivo at 0.1 mg/kg (TTR [4]; 168 h, Example 62: 0.1 mpk i.v., 7 days post-dose, G282 1:2): 38%
- response vs control in vivo at 0.03 mg/kg (TTR [4]; 168 h, Example 63: 0.03 mpk i.v., 7 days post-dose, G282 1:1): 91.8%
- response vs control in vivo at 0.1 mg/kg (TTR [4]; 168 h, Example 63: 0.1 mpk i.v., 7 days post-dose, G282 1:1): 43.6%

Reference: patent publication US20260225997A1, “IONIZABLE AMINE LIPIDS” (Intellia Therapeutics, Inc., priority 2018, published 2026)
